Assay results from patent US12208164B2, “Modular metal-organic polyhedra superassembly compositions” (UNM Rainforest Innovations, priority 2019, dated 2025).

System: A549 cells
Assay: Targeted cell killing efficacy, viability of A549 cells
Format: cell-based, human
Conditions: incubated 2 hours, series of concentrations
Experimental: Cell viability of the constructed nanocarriers was assessed by CellTiter-Glo 2.0 assay. […] Then, 100 μL of the samples was added into a white 96-well plate. Subsequently, 100 μL CellTiter-Glo 2.0 reagent was dispensed into each well. The luminescence was recorded 10 minutes after addition of CellTiter-Glo 2.0 reagent by a BioTek microplate reader. Cell viability was calculated as a percentage of mammalian cells in the absence of nanocarriers.

COc1cccc2c1C(=O)c1c(O)c3c(c(O)c1C2=O)C[C@@](O)(C(=O)CO)C[C@@H]3O[C@H]1C[C@H](N)[C@H](O)[C@H](C)O1 [free DOX, doxorubicin]
toxicity to A549 cells: dose-dependent toxicity
